Source: patent US20120294879A1, “CONSENSUS SEQUENCE FOR INFLUENZA A VIRUS” (priority 2009, published 2012)

Experiments:
Type in all cases: cell-based
[1] = system: splenocytes of HLA-A24 (A*2402) transgenic mice; parameters: key to A24: average IFN-γ spots forming cells per million splenocytes: — represents no positive ELISpot response
[2] = system: splenocytes of HLA-B7 (B*0702) transgenic mice; parameters: key to B7: average IFN-γ spots forming cells per million splenocytes: — represents no positive ELISpot response
[3] = system: splenocytes of HLA-DR2 (DRB1*1501) transgenic mice; parameters: key to DR2: average IFN-γ spots forming cells per million splenocytes: — represents no positive ELISpot response
[4] = system: splenocytes of HLA-DR3 (DRB1*0301) transgenic mice; parameters: key to DR3: average IFN-γ spots forming cells per million splenocytes: — represents no positive ELISpot response
[5] = system: splenocytes of HLA-DR4 (DRB1*0401) transgenic mice; parameters: key: — represents no positive ELISpot response

Sequence | A24: average IFN-γ spots forming cells per million splenocytes [1] | B7: average IFN-γ spots forming cells per million splenocytes [2] | DR2: average IFN-γ spots forming cells per million splenocytes [3] | DR2: lowest concentration of peptide giving positive ELISpot response in peptide titration [3] | DR3: average IFN-γ spots forming cells per million splenocytes [4] | DR3: lowest concentration of peptide giving positive ELISpot response in peptide titration [4] | DR4: average IFN-γ spots forming cells per million splenocytes [5] | A24: lowest concentration of peptide giving positive ELISpot response in peptide titration [1]
LQLFIKDYRYTYRCHRG | — | — | 61 ± 2(1) IFN-γ spots forming cells per million splenocytes | 61 ± 2(1) μg/ml | 230 ± 23(0.1) IFN-γ spots forming cells per million splenocytes | 230 ± 23(0.1) μg/ml | 97 ± 30(0.1) IFN-γ spots forming cells per million splenocytes | 
KYPITADKRITEMIPER | — | — | — |  | 499 ± 4(0.1) IFN-γ spots forming cells per million splenocytes | 499 ± 4(0.1) μg/ml | — | 
LEKANKIKSEKTHIHIF | — | — | — |  | — |  | 41 ± 10(0.1) IFN-γ spots forming cells per million splenocytes | 
MELPSFGVSGVNESADM | — | — | — |  | — |  | 274 ± 15(0.1) IFN-γ spots forming cells per million splenocytes | 
LPDMTPSTEMSMRGVRV | — | — | — |  | 324 ± 28(0.1) IFN-γ spots forming cells per million splenocytes | 324 ± 28(0.1) μg/ml | — | 
EYDAVATTHSWVPKRNR | — | — | — |  | — |  | 59 ± 2(0.1) IFN-γ spots forming cells per million splenocytes | 
FFYRYGFVANFSMELPS | 210 ± 25 IFN-γ spots forming cells per million splenocytes | — | — |  | — |  | — | (0.1) μg/ml
DQSLIIAARNIVRRAAV | — | — | — |  | 169 ± 12(0.1) IFN-γ spots forming cells per million splenocytes | 169 ± 12(0.1) μg/ml | — | 
RQTYDWTLNRNQPAATA | — | — | — |  | 78 ± 0(0.1) IFN-γ spots forming cells per million splenocytes | 78 ± 0(0.1) μg/ml | — | 
PESVLINTYQWIIRNWE | 226 ± 5 IFN-γ spots forming cells per million splenocytes | — | — |  | — |  | — | (0.1) μg/ml
KLLGINMSKKKSYINRT | — | — | — |  | 116 ± 10(0.1) IFN-γ spots forming cells per million splenocytes | 116 ± 10(0.1) μg/ml | — | 
RATAILRKATRRLIQLI | — | — | — |  | — |  | 54 ± 2(0.1) IFN-γ spots forming cells per million splenocytes | 
LLRHFQKDAKVLFLNWG | — | — | — |  | 444 ± 14(0.1) IFN-γ spots forming cells per million splenocytes | 444 ± 14(0.1) μg/ml | — | 
SRPMFLYVRTNGTSKIK | — | — | — |  | — |  | 114 ± 24(0.1) IFN-γ spots forming cells per million splenocytes | 
LTHIMIWHSNLNDTTYQ | — | — | 238 ± 59(0.1) IFN-γ spots forming cells per million splenocytes | 238 ± 59(0.1) μg/ml | — |  | — | 
GPAKNMEYDAVATTHSW | — | — | — |  | 142 ± 45(0.1) IFN-γ spots forming cells per million splenocytes | 142 ± 45(0.1) μg/ml | 41 ± 9(0.1) IFN-γ spots forming cells per million splenocytes | 
GRFYIQMCTELKLNDYE | — | — | — |  | 66 ± 7(1) IFN-γ spots forming cells per million splenocytes | 66 ± 7(1) μg/ml | — | 
MGMIGILPDMTPSTEMS | — | — | — |  | — |  | 238 ± 5(0.1) IFN-γ spots forming cells per million splenocytes | 
EVHIYYLEKANKIKSEK | — | — | — |  | — |  | 37 ± 11(0.1) IFN-γ spots forming cells per million splenocytes | 
LASTTAKAMEQMAGSSE | — | — | — |  | — |  | 115 ± 21(1) IFN-γ spots forming cells per million splenocytes | 
MWEINGPESVLINTYQW | 289 ± 16 IFN-γ spots forming cells per million splenocytes | — | — |  | — |  | — | (0.1) μg/ml
NPSLRMKWMMAMKYPIT | — | — | — |  | — |  | 166 ± 3(0.1) IFN-γ spots forming cells per million splenocytes | 
ESADMSIGVTVIKNNMI | — | — | 75 ± 10(0.1) IFN-γ spots forming cells per million splenocytes | 75 ± 10(0.1) μg/ml | — |  | — | 
KHGTFGPVHFRNQVKIR | — | — | — |  | — |  | 316 ± 20(0.1) IFN-γ spots forming cells per million splenocytes | 
DKLTQGRQTYDWTLNRN | — | — | — |  | 142 ± 6(0.1) IFN-γ spots forming cells per million splenocytes | 142 ± 6(0.1) μg/ml | — | 
